Counter-ions that a name gives are not always drawn.
Tests used:
[1] = tested on: NCI-H292 lung cancer cells; assay: FDA drug screening, complete media vs cholesterol-free media with simvastatin (TABLE 2); assay type: cell-based, human; conditions: for Cholesterol-free media + simvastatin (0.04 μM) / Complete Media: NCI-H292 cells
[2] = tested on: NCI-H292 lung cancer cells; assay: FDA drug screening, complete media vs cholesterol-free media without statin (TABLE 1); assay type: cell-based, human
[3] = FDA library drug in cholesterol-free media with simvastatin 0.04 μM
[4] = complete media vs cholesterol-free media + simvastatin (0.04 μM), >0 enhanced anti-cancer activity, about 0 neutral, <0 antagonist
[5] = Complete minus Cholesterol-free, greater than 0 enhanced anti-cancer activity, about 0 neutral, below 0 antagonists
[6] = NCI-H292 cells in cholesterol-free media without statin
[7] = NCI-H292 cells in complete media
[8] = FDA drug library screen, cholesterol-free media with simvastatin 0.04 μM
[9] = FDA drug library screen, complete media
[10] = NCI-H292 cells, cholesterol-free media without statin
[11] = complete vs cholesterol-free media, greater than 0 enhanced anti-cancer activity, about 0 neutral, below 0 antagonists
[12] = FDA library drug in complete media
[13] = Complete minus Cholesterol-free, >0 enhanced anti-cancer activity, about 0 neutral, <0 antagonist
[14] = NCI-H292 cells, cholesterol-free media without statin, FDA drug library screen
[15] = NCI-H292 cells, complete media, FDA drug library screen
[16] = complete media, FDA drug library screen (TABLE 2)
[17] = complete media minus cholesterol-free media + simvastatin (0.04 μM), >0 enhanced anti-cancer activity, about 0 neutral, <0 antagonist
[18] = complete media minus cholesterol-free media + simvastatin, >0 enhanced anti-cancer activity, about 0 neutral, <0 antagonist
[19] = cholesterol-free media with simvastatin 0.04 μM, cell growth value in FDA drug screen
[20] = complete media, cell growth value in FDA drug screen
[21] = Complete minus Cholesterol-free, greater than 0 enhanced anti-cancer activity, about 0 neutral, below 0 antagonist
[22] = NCI-H292 cells, FDA drug library screen, cholesterol-free media without statin
[23] = NCI-H292 cells, FDA drug library screen, complete media
[24] = cholesterol-free media with simvastatin 0.04 μM, FDA drug library screen (TABLE 2)
[25] = Complete minus Cholesterol-free, […]
[26] = drug in cholesterol-free media with simvastatin 0.04 μM
[27] = complete media minus cholesterol-free media + simvastatin (0.04 μM), […]

(S)-Flurbiprofen
Cholesterol-free media + simvastatin (0.04 μM) [1, 3]: 1.832 | Difference [1, 4]: −0.79 | Difference [2, 5]: −0.56 | Cholesterol-free [2, 6]: 1.504 | Complete [2, 7]: 0.9454

Nc1nc(CC(=O)Nc2ccc(CCNC[C@H](O)c3ccccc3)cc2)cs1 [Mirabegron]
Cholesterol-free media + simvastatin (0.04 μM) [1, 8]: 1.317 | Complete Media [1, 9]: 1.183 | Difference [1, 4]: −0.13 | Cholesterol-free [2, 10]: 1.131 | Complete ([2]; NCI-H292 cells, complete media): 0.7731 | Difference [2, 11]: −0.36

CNCc1ccc(-c2[nH]c3cc(F)cc4c3c2CCNC4=O)cc1 [Rucaparib]
Cholesterol-free media + simvastatin (0.04 μM) [1, 3]: 1.04 | Complete Media [1, 12]: 0.7044 | Difference [1, 4]: −0.34 | Difference [2, 13]: −0.02 | Cholesterol-free [2, 14]: 0.9041 | Complete [2, 15]: 0.881

CCN1CCN(c2cc(-c3ccc(F)cc3)c3c(n2)CCCCCC3)CC1 [Blonanserin]
Complete Media [1, 16]: 0.8939 | Difference [1, 17]: −0.05 | Difference [2, 13]: −0.06 | Cholesterol-free [2, 14]: 1.144 | Complete [2, 15]: 1.088

Nc1nc(NC2CC2)c2ncn([C@H]3C=C[C@@H](CO)C3)c2n1 [Abacavir]
Cholesterol-free media + simvastatin (0.04 μM) [1, 8]: 1.851 | Complete Media [1, 9]: 2.026 | Difference [1, 18]: 0.18 | Cholesterol-free [2, 14]: 0.6425 | Complete [2, 15]: 1.2 | Difference ([2]; complete vs cholesterol-free media, >0 enhanced anti-cancer activity, about 0 neutral, <0 antagonist): 0.56

OCCOCCN1CCN(C2=Nc3ccccc3Sc3ccccc32)CC1 [Quetiapine]
Cholesterol-free media + simvastatin (0.04 μM) [1, 19]: 0.8037 | Complete Media [1, 20]: 0.9281 | Difference [1, 18]: 0.12 | Difference [2, 21]: −0.09 | Cholesterol-free [2, 22]: 0.8483 | Complete [2, 23]: 0.7581

Cl.NCCC[C@H](N)C(=O)O [L-Ornithine (hydrochloride)]
Cholesterol-free media + simvastatin (0.04 μM) [1, 24]: 0.8763 | Complete Media [1, 16]: 0.8132 | Difference [1, 17]: −0.06 | Difference [2, 21]: −0.11 | Cholesterol-free [2, 22]: 1.434 | Complete [2, 23]: 1.328

C#C[C@]1(O)CC[C@H]2[C@@H]3CCC4=CC(=O)CC[C@@H]4[C@H]3CC[C@@]21CC [Levonorgestrel]
Cholesterol-free media + simvastatin (0.04 μM) [1, 3]: 1.877 | Complete Media [1, 12]: 1.543 | Difference [1, 4]: −0.33 | Difference [2, 13]: −0.21 | Cholesterol-free [2, 10]: 1.107 | Complete ([2]; NCI-H292 cells, complete media): 0.8992

COC(=O)C1=C(C)NC(C)=C(C(=O)OC(C)C)C1c1cccc2nonc12 (stereo not shown) [Isradipine]
Cholesterol-free media + simvastatin (0.04 μM) [1, 8]: 0.7485 | Complete Media [1, 9]: 1.061 | Difference [1, 18]: 0.31 | Cholesterol-free [2, 10]: 1.16 | Complete ([2]; NCI-H292 cells, complete media): 0.8034 | Difference [2, 11]: −0.36

Nc1cccc2c1C(=O)N(C1CCC(=O)NC1=O)C2=O (stereo not shown) [Pomalidomide]
Cholesterol-free media + simvastatin (0.04 μM) [1, 24]: 1.093 | Complete Media [1, 16]: 1.03 | Difference [1, 17]: −0.06 | Difference [2, 13]: −0.27 | Cholesterol-free [2, 10]: 1.37 | Complete ([2]; NCI-H292 cells, complete media): 1.095

Vinblastine (sulfate)
Cholesterol-free media + simvastatin (0.04 μM) [1, 8]: 0.2181 | Complete Media [1, 9]: 0.1119 | Difference ([1]; complete media vs cholesterol-free media + simvastatin (0.04 μM), […]): −0.11 | Difference [2, 25]: 0.04 | Cholesterol-free [2, 14]: 0.05138 | Complete [2, 15]: 0.09114

O=C(O)[C@H]1O[C@@H](Oc2cc3oc(-c4ccccc4)cc(=O)c3c(O)c2O)[C@H](O)[C@@H](O)[C@@H]1O [Baicalin]
Cholesterol-free media + simvastatin (0.04 μM) [1, 26]: 1.298 | Complete Media ([1]; drug in complete media): 1.093 | Difference [1, 4]: −0.20 | Difference [2, 13]: −0.04 | Cholesterol-free [2, 14]: 1.064 | Complete [2, 15]: 1.025

CCC(=O)NC[C@@H]1C[C@H]1c1cccc2c1CCO2 [Tasimelteon]
Cholesterol-free media + simvastatin (0.04 μM) [1, 24]: 0.9943 | Complete Media [1, 16]: 0.9618 | Difference [1, 17]: −0.03 | Difference [2, 21]: −0.12 | Cholesterol-free [2, 22]: 0.9406 | Complete [2, 23]: 0.8228

Cc1cc(Nc2ncc(Cl)c(Nc3ccccc3S(=O)(=O)C(C)C)n2)c(OC(C)C)cc1C1CCNCC1 [Ceritinib dihydrochloride]
Cholesterol-free media + simvastatin (0.04 μM) [1, 8]: 0.1666 | Complete Media [1, 9]: 0.03677 | Difference [1, 4]: −0.13 | Difference [2, 13]: −0.02 | Cholesterol-free [2, 14]: 0.3644 | Complete [2, 15]: 0.3489

CNC(=O)c1cc(Oc2ccc(NC(=O)Nc3ccc(Cl)c(C(F)(F)F)c3)c(F)c2)ccn1 [Regorafenib]
Cholesterol-free media + simvastatin (0.04 μM) [1, 26]: 1.071 | Complete Media ([1]; drug in complete media): 0.8585 | Difference [1, 4]: −0.21 | Difference [2, 21]: −0.09 | Cholesterol-free [2, 22]: 0.6924 | Complete [2, 23]: 0.601

CC[C@H]1[C@@H]2C[C@H]3[C@@H]4N(C)c5ccccc5[C@]45C[C@@H]([C@H]2[C@H]5O)N3[C@@H]1O [Ajmaline]
Cholesterol-free media + simvastatin (0.04 μM) [1, 24]: 1.33 | Complete Media [1, 16]: 1.333 | Difference [1, 27]: 0.00 | Difference [2, 25]: −0.16 | Cholesterol-free [2, 22]: 1.107 | Complete [2, 23]: 0.943

CC(C)(C)NC(=O)[C@H]1CC[C@H]2[C@@H]3CC[C@H]4NC(=O)C=C[C@]4(C)[C@H]3CC[C@]12C [Finasteride]
Cholesterol-free media + simvastatin (0.04 μM) [1, 19]: 1.571 | Complete Media [1, 20]: 1.636 | Difference [1, 18]: 0.06 | Cholesterol-free [2, 10]: 1.209 | Complete ([2]; NCI-H292 cells, complete media): 0.7878 | Difference [2, 11]: −0.42

CCC(CC)[C@H](NC(C)=O)[C@@H]1[C@H](O)[C@@H](C(=O)O)C[C@H]1NC(=N)N.O.O.O [Peramivir (trihydrate)]
Cholesterol-free media + simvastatin (0.04 μM) [1, 8]: 1.025 | Complete Media [1, 9]: 0.9283 | Difference [1, 4]: −0.10 | Cholesterol-free [2, 10]: 2.062 | Complete ([2]; NCI-H292 cells, complete media): 1.606 | Difference [2, 11]: −0.46

C/C(=C(\CCOP(=O)(O)O)SC(=O)c1ccccc1)N(C=O)Cc1cnc(C)nc1N [Benfotiamine]
Cholesterol-free media + simvastatin (0.04 μM) [1, 8]: 1.23 | Complete Media [1, 9]: 1.076 | Difference [1, 4]: −0.15 | Cholesterol-free [2, 10]: 1.163 | Complete ([2]; NCI-H292 cells, complete media): 0.7915 | Difference [2, 11]: −0.37

CN(C)CCOC(=O)COc1ccc(Cl)cc1 [Meclofenoxate (hydrochloride)]
Cholesterol-free media + simvastatin (0.04 μM) [1, 24]: 1.001 | Complete Media [1, 16]: 0.9764 | Difference [1, 27]: −0.02 | Difference [2, 25]: −0.28 | Cholesterol-free [2, 10]: 1.499 | Complete ([2]; NCI-H292 cells, complete media): 1.221

Dimenhydrinate
Cholesterol-free media + simvastatin (0.04 μM) [1, 19]: 0.8945 | Complete Media [1, 20]: 0.9753 | Difference [1, 18]: 0.08 | Cholesterol-free [2, 10]: 1.237 | Complete ([2]; NCI-H292 cells, complete media): 0.8523 | Difference [2, 11]: −0.39

O=P(O)(O)C(O)(Cn1ccnc1)P(=O)(O)O [Zoledronic acid (monohydrate)]
Cholesterol-free media + simvastatin (0.04 μM) [1, 8]: 0.7262 | Complete Media [1, 9]: 0.8945 | Difference [1, 18]: 0.17 | Difference [2, 13]: −0.23 | Cholesterol-free [2, 10]: 1.033 | Complete ([2]; NCI-H292 cells, complete media): 0.8069

CC(C)NC[C@H](O)COc1ccc(CCOCC2CC2)cc1 [Levobetaxolol (hydrochloride)]
Cholesterol-free media + simvastatin (0.04 μM) [1, 24]: 1.004 | Complete Media [1, 16]: 0.9581 | Difference [1, 17]: −0.05 | Difference [2, 5]: −0.54 | Cholesterol-free [2, 6]: 1.517 | Complete [2, 7]: 0.977

From patent publication US20250144067A1, “PERSONALIZED STARVATION THERAPY FOR CANCER” (Faeth Therapeutics, Inc., priority 2021, published 2025)
